This is an account of results in ChEMBL document CHEMBL5500321, “Synthesis and clinical application of small-molecule drugs approved to treat prostatic cancer” (Eur J Med Chem, 2023).

One assay concerns 4T1. Nature of the assay: Antitumor activity against mouse 4T1 cells xenografted in BALB/c mouse model assessed as reduction in tumor growth at 100 microg/ml measured after 20 days relative to control. The arrangement: scale not given: the % may be the effect or the level left. Particulars: dose 100 µg/ml; time 20 day. Format: functional.
Another assay relates to T47D. The experiment in a line: Antiproliferative activity against human T47D cells assessed as reduction in cell growth incubated for 48 hrs by MTT assay. The class given is functional, cell-based. (Tetrazolium assays rely on reduction of a dye to a coloured formazan, in cell work by metabolically active cells.)
For another assay, the system named is ZR-75-1. Nature of the assay: Antiproliferative activity against human ZR-75-1 cells assessed as reduction in cell growth measured after 5 days by Celltiter-Glo assay. Format: functional, cell-based. Particulars: ZR-75-1, 120 h. (In ATP-based viability assays light output follows the ATP content of the culture.)
Assay [1] in a line: Antiproliferative activity against human LNCaP/AR cells assessed as reduction in cell growth measured after 3 days by CellTiter-Glo assay. Format: functional, cell-based. Particulars: 72 h.
Another assay concerns DU-145. The experiment in a line: Antimitotic activity against human DU-145 cells assessed as reduction in cell proliferation incubated for 72 hrs by alamar blue based fluorescence spectrophotometric analysis. Format: functional. Particulars: DU-145, 72 h.
Another assay concerns the target Tubulin. Nature of the assay: Inhibition of microtubule (unknown origin) polymerization. The class given is protein-complex assay, Homo sapiens.

`CO[C@H]1C(=O)[C@]2(C)[C@@H](OC)C[C@H]3OC[C@@]3(OC(C)=O)[C@H]2[C@H](OC(=O)c2ccccc2)[C@]2(O)C[C@H](OC(=O)[C@H](O)[C@@H](NC(=O)OC(C)(C)C)c3ccccc3)C(C)=C1C2(C)C` [CABAZITAXEL]: the Activity in the assay with 4T1 turned out to be 56.2%.

As a reminder, the IC50 is the concentration that gives 50% inhibition. On to `CC1(C)NC(=O)N(c2ccc([N+](=O)[O-])c(C(F)(F)F)c2)C1=O` [NILUTAMIDE], for which the IC50 in the assay on T47D worked out at 87 nM; in the assay on ZR-75-1 it was 75 nM.

For `CC(O)(CS(=O)(=O)c1ccc(F)cc1)C(=O)Nc1ccc(C#N)c(C(F)(F)F)c1` (stereo unspecified) [BICALUTAMIDE], the IC50 in assay [1] worked out at 160 nM.

Take `C[C@]12CC[C@@H]3c4ccc(OC(=O)N(CCCl)CCCl)cc4CC[C@H]3[C@@H]1CC[C@@H]2OP(=O)(O)O` [ESTRAMUSTINE PHOSPHATE SODIUM]: the half-maximal inhibitory concentration (IC50) in the assay with DU-145 amounted to 16 µM.

Regarding `CC(=O)O[C@@]12CO[C@@H]1C[C@H](O)[C@@]1(C)C(=O)[C@H](O)C3=C(C)[C@@H](OC(=O)[C@H](O)[C@@H](NC(=O)OC(C)(C)C)c4ccccc4)C[C@@](O)([C@@H](OC(=O)c4ccccc4)[C@H]21)C3(C)C` [DOCETAXEL ANHYDROUS], the IC50 against Tubulin came to 200 nM.
